Results reported in patent publication US9932288B2, “Chemical compound for inhibition of SHP2 function and for use as an anti-cancer agent” (West Virginia University, priority 2015, dated 2018).
Values joined by “and” are separate entries in the source; they are usually repeats but may differ in a detail not shown here. Identical values can stand only once.

Assays:
MDA-MB468 cells [1] = experiment: soft agar anchorage-independent growth, MDA-MB468; type: cell-based
Description: (§1) Next, the efficacy of CNBDA was evaluated by the soft agar assay, a technique commonly used to determine ability of cells to grow in an anchorage-independent manner, one of the hall marks of a cancer cell. The HER2-positive BT474 and the HER1-positive MDA-MB468 cells were seeded in soft agar, treated with placebo or CNBDA at variable concentrations, cultured for 10 days, and their ability to form colonies was monitored by observation under a microscope. […] While the placebo-treated BT474 and MDA-MB468 cells formed larger and numerous colonies in 10 days, the CNBDA-treated counterparts formed smaller and fewer ones (FIG. 6B). In addition, the concentration of CNBDA that abolished colony formation in soft agar was at least 4-fold lower than the amount that caused cell death in 2D cultures in both cell lines (compare FIGS. 6A and 6B).
(§2) Note than the number and size of colonies decreases as the concentration of CNBDA increases. Also note that the concentration of CNBDA that abolished colony formation in the HER2-positive BT474 breast cancer cell line is 2-fold lower than the amount used in the MDA-MB468 cells.

[2] = tested on: non-tumorigenic MCF-10A breast epithelial cells; experiment: 2D culture cell growth, MCF-10A normal control; type: cell-based
Description: (§3) Therefore, the anti-cancer activity of CNBDA was tested in breast cancer cells under 2-dimensional (culture plates), soft agar, and suspension cultures. Because SHP2 is an essential downstream mediator of receptor tyrosine kinase (RTK) signaling, including HER2 and HER1 [24, 25], breast cancer cells that harbor dysregulated RTK and SHP2 signaling were chosen for testing the effect of CNDBA. Accordingly, the BT474 cell line that overexpress the human epidermal growth factor receptor 2 (HER2) and the MDA-MB468 cell line that overexpress HER1 (also known as EGFR) were used. The non-transformed MCF-10A breast epithelial cells were used as a “normal” control in these studies. The BT474 cells were grown in RPMI 1640, while the MDA-MB468 cells were grown in Dulbecco's Modified Eagle's Medium (DMEM), both supplemented with 10% fetal calf serum. On the other hand, the MCF-10A cells were grown in DMEM supplemented with […] recombinant human insulin, 20 ng/ml EGF (PeproTech), […] hydrocortisone, 100 ng/ml cholera toxin (Sigma) and 5% horse serum, as described previously. All cells were grown in a 37° C. incubator supplied with 5% CO2. […] In the HER2-positive BT474 breast cancer cell line, CNBDA suppressed cell growth at the lowest concentration used (100 ng/ml) as determined by absence of gradual increase in cell density (FIG. 6A). […]

[3] = tested on: EGFR-amplified MDA-MB468 basal-like breast cancer cell line; experiment: 2D culture cell growth and cell death, MDA-MB468; type: cell-based; conditions: MDA-MB468, 2D culture
Description: as §3

BT474 cells [4] = experiment: mammosphere formation in suspension culture, BT474; type: cell-based
Description: (§4) Finally, the effect of CNBDA on the above mentioned breast cancer cells (BT474 and MDA-MB468) was evaluated by the mammosphere formation assay in which cells with stem-like properties (including cancer stem cells) only can survive and form these structures. Briefly, cells were cultured in ultra-low adherence plates (1×10^6 cells per 6 cm plate) in a medium containing serum-free DMEM, 1 μg/ml hydrocortisone, 10 μg/ml insulin, 10 ng/ml EGF, 10 ng/ml FGF, 5 ng/ml heparin, and B27 (Invitrogen). After 10 days of culture, primary mammosphere formation was determined by observation under a microscope at which time pictures of mammospheres was taken at 4×objective. Next, the primary mammospheres were collected by centrifugation at 1000 rpm, dissociated to single cells by trypsination and pipetting, and re-cultured under same conditions to observe effect of SHP2 silencing on secondary mammosphere-forming capacity. Pictures of secondary cultures also were taken after 10 days at 4×objective. […] Similar to the anchorage-independent growth studies, the concentration of CNBDA that led to exhaustion of mammosphere formation was 4-5 fold lower than the amount needed for cell killing in the 2D cultures.
(§5) Note than the number and size of mammospheres decreases as the concentration of CNBDA increases.

MDA-MB468 cells [5] = experiment: mammosphere formation in suspension culture, MDA-MB468; type: cell-based
Description: as §4, §5

[6] = tested on: HER2-positive BT474 breast cancer cell line; experiment: 2D culture cell growth and cell death, BT474; type: cell-based; conditions: BT474, 2D culture
Description: Therefore, the anti-cancer activity of CNBDA was tested in breast cancer cells under 2-dimensional (culture plates), soft agar, and suspension cultures. Because SHP2 is an essential downstream mediator of receptor tyrosine kinase (RTK) signaling, including HER2 and HER1 [24, 25], breast cancer cells that harbor dysregulated RTK and SHP2 signaling were chosen for testing the effect of CNDBA. Accordingly, the BT474 cell line that overexpress the human epidermal growth factor receptor 2 (HER2) and the MDA-MB468 cell line that overexpress HER1 (also known as EGFR) were used. The non-transformed MCF-10A breast epithelial cells were used as a “normal” control in these studies. The BT474 cells were grown in RPMI 1640, while the MDA-MB468 cells were grown in Dulbecco's Modified Eagle's Medium (DMEM), both supplemented with 10% fetal calf serum. On the other hand, the MCF-10A cells were grown in DMEM supplemented with […] recombinant human insulin, 20 ng/ml EGF (PeproTech), […] hydrocortisone, 100 ng/ml cholera toxin (Sigma) and 5% horse serum, as described previously. All cells were grown in a 37° C. incubator supplied with 5% CO2. In the 2D culture studies, cells were treated with vehicle alone (PBS: phosphate buffered saline) or three different concentration of CNBDA. When the density of cells reached approximately 30%, each plate was treated with vehicle alone (placebo) or the indicated concentrations of CNBDA. In the HER2-positive BT474 breast cancer cell line, CNBDA suppressed cell growth at the lowest concentration used (100 ng/ml) as determined by absence of gradual increase in cell density (FIG. 6A). But, at the 72 hour time point, it was possible to see signs of cell death as evidenced by shrinkage in the extended patchy growth property of these cells. At 500 ng/ml and higher concentrations, CNBDA induced cell death within 24 hours which became more evident gradually.
At the lowest concentration used, CNBDA was able to block cell growth and induction of cell death was apparent only after 48 hours. […]

BT474 cells [7] = experiment: soft agar anchorage-independent growth, BT474; type: cell-based
Description: as §1, §2

[8] = molecular target: T1, PTP domain of SHP1 fused to GST (Homo sapiens, UniProt P29350); experiment: phosphatase assay with DiFMUP substrate, GST-PTP of SHP1; type: biochemical; conditions: DiFMUP 20 μM, 30° C., pH7.0
T1 construct: The PTP domains of SHP2 and SHP1 fused to glutathione-S-transferase (GST-PTPs) were expressed in E. coli; GST (N); made in house; host or cells: E. coli
T1 sequence (P29350 244-515 limits assumed): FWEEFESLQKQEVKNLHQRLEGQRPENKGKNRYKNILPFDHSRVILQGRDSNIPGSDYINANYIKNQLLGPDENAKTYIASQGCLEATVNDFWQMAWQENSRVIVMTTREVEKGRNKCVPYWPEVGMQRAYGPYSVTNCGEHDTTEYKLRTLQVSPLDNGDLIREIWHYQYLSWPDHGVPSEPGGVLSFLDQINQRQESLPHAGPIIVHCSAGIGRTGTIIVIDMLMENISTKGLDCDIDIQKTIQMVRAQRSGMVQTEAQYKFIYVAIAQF
Description: (§6) The effect of CNBD on the SHP2 phosphatase activity was tested using the artificial substrate DiFMUP (6,8-difluoro-4-methylumbelliferyl) at a concentration of 20 μM, which is commonly used in phosphatase assays. CNBDA concentrations of 1.94 mM, 194 μM, 97 μM, 48.5 μM, 24.25 μM, 19.4 μM, 12.9 μM, and 1.94 μM in water were used in the analysis. The PTP domains of SHP2 and SHP1 fused to glutathione-S-transferase (GST-PTPs) were expressed in E. coli using a standard protein expression protocol and purified on glutathione sepharose beads as recommended by the manufacturer (Pharmacia), and quantified by measuring absorbance at 280 nm and comparison with BSA standards. Reactions were performed at 30° C. in 100 μl volume of PTPase buffer containing 25 mM Tris-HCl pH7.0, 50 mM NaCl, 2 mM EDTA and 10 mM dithiothreitol (DTT). Change in absorbance (production of DiFMU, dephosphorylated form of DiFMUP) was followed in a plate-reading visible spectrophotometer at 450 nm.

[9] = molecular target: T2, PTP domain of SHP2 fused to GST (Homo sapiens, UniProt Q06124); experiment: phosphatase assay with DiFMUP substrate, GST-PTP of SHP2; type: biochemical
T2 construct: The PTP domains of SHP2 and SHP1 fused to glutathione-S-transferase (GST-PTPs) were expressed in E. coli; GST (N); made in house; host or cells: E. coli
T2 sequence (Q06124 247-517 limits assumed): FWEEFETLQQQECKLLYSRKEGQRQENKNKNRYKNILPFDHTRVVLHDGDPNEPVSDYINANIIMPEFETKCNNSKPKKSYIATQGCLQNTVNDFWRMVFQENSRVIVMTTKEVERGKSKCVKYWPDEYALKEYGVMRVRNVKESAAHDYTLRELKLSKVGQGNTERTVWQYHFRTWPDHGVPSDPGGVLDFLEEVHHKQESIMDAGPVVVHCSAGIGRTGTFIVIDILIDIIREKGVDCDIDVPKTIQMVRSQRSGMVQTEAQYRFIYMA
Description: as §6

CCCCCCCCCOc1c(CCCC(=O)O)cc(-c2ccc(C(=O)O)cc2)cc1CCCC(=O)O [CNBDA]
concentration abolishing colony formation, fold lower than amount causing cell death in 2D culture (MDA-MB468 cells [1]; MDA-MB468): at least 4 fold
colony formation in soft agar (MDA-MB468 cells [1]; MDA-MB468, 10 days, concentration dependent): suppression of colony formation
effect on cell growth and cell death at the higher concentration used ([2]; 6 μg/ml): did not cause a significant decrease in cell growth or induce cell death
effect on cell growth ([2]; 2D culture): very little effect
concentration showing effect, relative to BT474 cells [3]: double the concentration
minimum concentration needed to induce cell death after 48 hours ([3]; pilot studies): 1 µg/mL
concentration exhausting mammosphere formation, fold lower than amount needed for cell killing in 2D cultures (BT474 cells [4]; BT474): 4-5 fold
mammosphere formation (BT474 cells [4]; BT474, suspension culture, concentration dependent): suppressed mammosphere formation
concentration abolishing mammosphere formation in BT474, fold lower than in MDA-MB468 (BT474 cells [4]; suspension culture): 2 fold
concentration exhausting mammosphere formation, fold lower than amount needed for cell killing in 2D cultures (MDA-MB468 cells [5]; MDA-MB468): 4-5 fold
mammosphere formation (MDA-MB468 cells [5]; MDA-MB468, suspension culture, concentration dependent): suppressed mammosphere formation
concentration that induced cell death within 24 hours [6]: ≥ 500 ng/mL
time at which cell death became apparent at the lowest concentration ([6]; 100 ng/ml): 72 h and > 48 h
concentration that suppressed cell growth (lowest used) ([6]; absence of increase in cell density): 100 ng/mL
concentration abolishing colony formation, fold lower than amount causing cell death in 2D culture (BT474 cells [7]; BT474): at least 4 fold
colony formation in soft agar (BT474 cells [7]; BT474, 10 days, concentration dependent): suppression of colony formation
concentration abolishing colony formation in BT474, fold lower than in MDA-MB468 (BT474 cells [7]; soft agar): 2 fold
IC50 [8]: 122 µM
mode of SHP2 inhibition [9]: competitive SHP2 inhibitor
IC50 ([9]; DiFMUP 20 μM, 30° C., pH7.0): 12 µM
selectivity for SHP2 over SHP1 ([9]; from IC50 values): 10 fold
